Legend:
[1] = biological target: T1, FBXL10 (Homo sapiens, UniProt Q8NHM5); assay: FBXL10 in vitro enzyme inhibition assay (AlphaScreen); assay type: biochemical; conditions: Table 3; 0.3 nM FBXL10, H3K36me2-biotin labeled peptide
T1 construct: purchased BPS Bioscience 50120
T1 sequence (Q8NHM5 1-650): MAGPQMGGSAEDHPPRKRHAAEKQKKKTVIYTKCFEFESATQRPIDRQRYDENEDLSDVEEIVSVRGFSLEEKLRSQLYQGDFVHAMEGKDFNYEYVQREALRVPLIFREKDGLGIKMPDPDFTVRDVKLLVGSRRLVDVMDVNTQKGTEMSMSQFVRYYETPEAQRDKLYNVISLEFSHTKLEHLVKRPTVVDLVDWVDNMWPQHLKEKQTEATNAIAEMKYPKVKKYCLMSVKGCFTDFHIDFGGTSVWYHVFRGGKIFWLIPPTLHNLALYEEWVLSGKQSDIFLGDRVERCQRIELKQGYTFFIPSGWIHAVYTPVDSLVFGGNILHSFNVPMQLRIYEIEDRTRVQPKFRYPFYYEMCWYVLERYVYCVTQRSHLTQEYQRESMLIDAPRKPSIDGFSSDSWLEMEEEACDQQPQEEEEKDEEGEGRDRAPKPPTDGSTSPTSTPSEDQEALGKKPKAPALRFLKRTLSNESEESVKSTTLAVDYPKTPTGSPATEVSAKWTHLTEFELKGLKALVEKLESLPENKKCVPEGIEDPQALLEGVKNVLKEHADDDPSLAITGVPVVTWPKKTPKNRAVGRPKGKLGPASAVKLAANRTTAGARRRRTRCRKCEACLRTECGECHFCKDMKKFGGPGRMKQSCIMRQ
Outline: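 Reactions ran 1 h at room temperature with 0.3 nM FBXL10 (aa 1-650, baculovirus). Substrates were 30 nM biotin-H3K36me2 peptide and 0.2 µM α-ketoglutarate in pH 7.3 HEPES buffer containing Fe(II) and ascorbate.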

[2] = biological target: T2, PHF8 (Homo sapiens, UniProt Q9UPP1); assay: PHF8 in vitro enzyme inhibition assay (TR-FRET); assay type: biochemical; conditions: Table 3; 3 nM PHF8, H3K9me1-biotin labeled peptide
T2 construct: purchased Active Motif 31435
T2 sequence (Q9UPP1 37-1060): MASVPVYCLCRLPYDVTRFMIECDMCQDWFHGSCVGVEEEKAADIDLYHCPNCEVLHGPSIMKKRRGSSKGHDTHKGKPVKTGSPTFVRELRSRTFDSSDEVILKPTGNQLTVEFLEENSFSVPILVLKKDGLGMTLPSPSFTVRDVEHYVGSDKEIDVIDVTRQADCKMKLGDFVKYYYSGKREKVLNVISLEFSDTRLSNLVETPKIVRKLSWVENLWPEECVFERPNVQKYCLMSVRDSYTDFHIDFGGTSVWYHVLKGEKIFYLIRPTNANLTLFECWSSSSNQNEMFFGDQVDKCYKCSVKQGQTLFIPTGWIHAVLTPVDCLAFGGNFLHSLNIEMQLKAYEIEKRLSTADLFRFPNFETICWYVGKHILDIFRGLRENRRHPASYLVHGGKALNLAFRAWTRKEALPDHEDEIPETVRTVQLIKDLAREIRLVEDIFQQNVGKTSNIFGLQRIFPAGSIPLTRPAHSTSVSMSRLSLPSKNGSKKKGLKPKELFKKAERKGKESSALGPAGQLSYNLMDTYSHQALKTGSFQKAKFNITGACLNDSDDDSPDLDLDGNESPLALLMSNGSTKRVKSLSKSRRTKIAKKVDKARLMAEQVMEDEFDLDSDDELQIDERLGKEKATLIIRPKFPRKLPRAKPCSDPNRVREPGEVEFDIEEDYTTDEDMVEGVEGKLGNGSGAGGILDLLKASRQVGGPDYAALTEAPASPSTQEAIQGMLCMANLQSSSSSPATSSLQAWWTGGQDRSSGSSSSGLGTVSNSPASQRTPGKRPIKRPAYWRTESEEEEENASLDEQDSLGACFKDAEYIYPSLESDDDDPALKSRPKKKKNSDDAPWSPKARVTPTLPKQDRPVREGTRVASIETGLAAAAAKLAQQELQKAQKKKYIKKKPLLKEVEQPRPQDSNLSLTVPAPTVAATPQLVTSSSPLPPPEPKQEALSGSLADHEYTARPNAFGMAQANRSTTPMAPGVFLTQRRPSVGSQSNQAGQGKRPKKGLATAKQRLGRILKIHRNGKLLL
Description: This assay determines the ability of a test compound to inhibit FBXL11, FBXL10, and PHF8 demethylase activity. Baculovirus expressed FBXL11 (GenBank Accession #NM_012308, AA1-1162) was purchased from BPS Bioscience (Cat#50102). Baculovirus expressed FBXL10 (GenBank Accession #NM_032590, AA 1-650) was purchased from BPS Bioscience (Cat #50120). Baculovirus expressed PHF8 (GenBank Accession NP_055922.1) was purchased from Active Motif (Cat#31435).
The ability of test compounds to inhibit the activity of PHF8 was determined in 384-well plate format under the following reaction conditions: 3 nM PHF8, 200 nM H3K9me1-biotin labeled peptide (Anaspec cat #64358), 0.5 µM alpha-ketoglutaric acid in assay buffer of 50 mM HEPES, pH7.3, 0.005% Brij35, 0.5 mM TCEP, 0.2 mg/ml BSA, 50 µM sodium L-ascorbate, and 5 µM ammonium iron(II) sulfate. Reaction product was determined quantitatively by TR-FRET after the addition of detection reagent Phycolink Streptavidin-allophycocyanin (Prozyme) and Europium-anti-unmodified-histone H3 lysine 9/lysine27 (H3K9/K27) antibody (PerkinElmer) in the presence of 5 mM EDTA in LANCE detection buffer (PerkinElmer) at a final concentration of 25 nM and 0.5 nM, respectively.
The assay reaction was initiated by the following: 2 µl of the mixture of 600 nM H3K9me1-biotin labeled peptide and 1.5 µM alpha-ketoglutaric acid with 2 µl of 11-point serial diluted inhibitor in 3% DMSO were added to each well of the plate, followed by the addition of 2 µl of 9 nM PHF8 to initiate the reaction. The reaction mixture was incubated at room temperature for 15 minutes, and terminated by the addition of 6 µl of 5 mM EDTA in LANCE detection buffer containing 50 nM Phycolink Streptavidin-allophycocyanin and 1 nM Europium-anti-unmodified H3K9/K27 antibody. Plates were read by EnVision Multilabel Reader in TR-FRET mode (excitation at 320 nm, emission at 615 nm and 665 nm) after 1 hour incubation at room temperature. A ratio was calculated (665/615) for each well and fitted to determine inhibition constant (IC50).

SMILES | IC50 [1] [nM] | IC50 [2] [nM]
Clc1cccc(-n2cnc(-c3cc4[nH]nnc4cn3)c2)c1 [Example 51, 1-(3-chlorophenyl)-4-{1H-[1,2,3]triazolo[4,5-c]pyridin-6-yl}-1H-imidazole] | 100 to 1000 | 1000 to 10000
Clc1ccc(Cn2cnc(-c3cc4[nH]nnc4cn3)c2)cc1Cl [Example 48, 1-[(3,4-dichlorophenyl)methyl]-4-{1H-[1,2,3]triazolo[4,5-c]pyridin-6-yl}-1H-imidazole] | ≤ 100 | 1000 to 10000
Clc1ccccc1Cn1cnc(-c2cc3[nH]nnc3cn2)c1 [Example 45, 1-[(2-chlorophenyl)methyl]-4-{1H-[1,2,3]triazolo[4,5-c]pyridin-6-yl}-1H-imidazole] | ≤ 100 | 1000 to 10000
Clc1ccc(-n2cnc(-c3cc4[nH]nnc4cn3)c2)cc1 [Example 49, 1-(4-chlorophenyl)-4-{1H-[1,2,3]triazolo[4,5-c]pyridin-6-yl}-1H-imidazole] | ≤ 100 | 1000 to 10000

More lines, now with the values ahead:

IC50 [1] [nM] | IC50 [2] [nM] | SMILES
≤ 100 | 1000 to 10000 | Clc1ccccc1-n1cnc(-c2cc3[nH]nnc3cn2)c1 [Example 50, 1-(2-chlorophenyl)-4-{1H-[1,2,3]triazolo[4,5-c]pyridin-6-yl}-1H-imidazole]
≤ 100 | 1000 to 10000 | Clc1cccc(Cn2cnc(-c3cc4[nH]nnc4cn3)c2)c1 [Example 46, 1-[(3-chlorophenyl)methyl]-4-{1H-[1,2,3]triazolo[4,5-c]pyridin-6-yl}-1H-imidazole]
≤ 100 | 100 to 1000 | c1ccc(Cn2cnc(-c3cc4[nH]nnc4cn3)c2)cc1 [Example 44, 1-benzyl-4-{1H-[1,2,3]triazolo[4,5-c]pyridin-6-yl}-1H-imidazole]
≤ 100 | 1000 to 10000 | Clc1ccc(Cn2cnc(-c3cc4[nH]nnc4cn3)c2)cc1 [Example 47, 1-[(4-chlorophenyl)methyl]-4-{1H-[1,2,3]triazolo[4,5-c]pyridin-6-yl}-1H-imidazole]

Reference: patent publication EP3436445B1, “HISTONE DEMETHYLASE INHIBITORS” (Celgene Quanticel Research, Inc., priority 2016, dated 2017)
